No end group written: not given here.
Key:
Type in all cases: cell-based
HCT116 cells [1] = assay: Colony forming activity in soft agar, HCT116; settings: 6 days; doses 0.05, 0.5 and 5 μM
Description: (§1) T98G (FIG. 21A), MDA-MB 231 (FIG. 21B), and HCT116 (FIG. 21C) cells were exposed to CP-DN-CEBPB and CP-DN-CEBPD for 6 days at doses of 0.05 μM 0.5 μM, and 5 μM while growing in soft agar. Growth was inhibited by does as low as 0.5 μM. T98G (FIG. 21D), MDA-MB 231 (FIG. 21E), and HCT116 (FIG. 21F) cells were exposed to CP-DN-CEBPB and CP-DN-CEBPD for 6 days at doses of 0.05 μM 0.5 μM, and 5 μM while growing on culture plates. Growth was inhibited by does as low as 0.5 μM.

MDA-MB 231 cells = assay: Combination with chloroquine, cell number, MDA-MB 231; settings: 5 μM or 10 μM chloroquine and 3 μM or 10 μM peptide, 6 days
Description: Replicate cultures of T98G, MDA-MB 231, and HCT116 cells were treated with 5 μM or 10 μM chloroquine and 3 μM or 10 μM CP-dn-CEBPB and CP-dn-CEBPD peptides, maintained for 6 days, and then assessed for cell number. The bar graphs of FIGS. 29A (T98G, CP-dn-CEBPB), 29C (T98G, CP-dn-CEBPBD, 29E (MDA-MB-231, CP-dn-CEBPBD), 29G (MDA-MB-231, CP-dn-CEBPD), 29I (HCT116, CP-dn-CEBPBB), and 26K (HCT116, CP-dn-CEBPBD) show relative cell numbers for each condition as compared to untreated controls. The line graphs of FIGS. 26B (T98G, CP-dn-CEBPB), 26D (T98G, CP-dn-CEBPBD), 26F (MDA-MB-231, CP-dn-CEBPB), 26H (MDA-MB-231, CP-dn-CEBPD), 26J (HCT116, CP-dn-CEBPB), and 26L (HCT116 CP-dn-CEBPBD) show the response as normalized in each case so that 100 represents the relative number of surviving cells that received the indicated level of chloroquine, but no peptide treatment. The results ranged from near-additive (HCT116 cells, CI=0.92±0.08 for CP-dn-CEBPB and 0.87±0.07 for CP-dn-CEBPD) to apparent synergy (T98G, CI=0.56±0.06 for CP-dn-CEBPB and 0.75±0.03 for CP-dn-CEBPD; MDA-MB-261, CI=0.59±0.11 for CP-dn-CEBPB and 0.47±0.05 for CP-dn-CEBPD).

[2] = system: B16 murine melanoma cells; assay: Cell number after peptide treatment, B16; settings: 6 days, 0 μM to 50 μM; stock without BSA
Description: Replicate cultures were exposed to the peptides the for 6 days at the indicated concentrations. Stock solutions of the peptides were prepared in buffer without added bovine serum albumin (BSA).

HCT116 cells [3] = assay: Combination with gamma radiation, cell number, HCT116; settings: 2 Gy or 5 Gy; peptide 0.05, 0.5 or 5 μM one day later, 6 days; CI<1 indicates synergism
Description: Replicate cultures of T98G and HCT116 cells were exposed to 2 Gy or 5 Gy of gamma radiation. One day later, the cultures were treated with 0.05 μM, 0.5 μM, or 5 μM CP-dn-CEBPB and CP-dn-CEBPD peptides, maintained for 6 days, and then assessed for cell number. The bar graphs of FIGS. 24A (T98G, CP-dn-CEBPB), 24C (T98G, CP-dn-CEBPBD, 24E (HCT116, CP-dn-CEBPD), and 24G (HCT116, CP-dn-CEBPD) show relative cell numbers for each condition as compared to untreated controls. The line graphs of FIGS. 24B (T98G, CP-dn-CEBPB), 24D (T98G, CP-dn-CEBPBD, 24F (HCT116, CP-dn-CEBPB), and 24H (HCT116, CP-dn-CEBPD) show the response as normalized in each case so that 100 represents the relative number of surviving cells that received the indicated level of radiation treatment, but no peptide treatment. Calculated Combination Indexes (CI) are T98G, CI=0.61±0.05 for CP-dn-CEBPB, 0.68±0.07 for CP-dn-CEBPD; HCT116, 0.89±0.04 for CP-dn-CEBPB, 0.86±0.05 for CP-dn-CEBPD. CI=1 indicates additivity; CI<1 indicates synergism; CI>1 indicates antagonism.

T98G cells = assay: Colony forming activity in soft agar, T98G; settings: 6 days; doses 0.05, 0.5 and 5 μM
Description: as §1

normal human astrocytes = assay: Survival after peptide treatment, astrocytes; settings: 6 days, 0 μM to 50 μM; stock without BSA
Description: Replicate cultures of HIEC-6 non-cancer human intestinal epithelial cells, MCF10A non-cancer human breast epithelial cells, or normal human astrocytes were exposed to CP-DN-CEBPB or CP-DN-CEBPD, for 6 days at doses of 0 μM to 50 μM. […] Stock solutions of the peptides were prepared in buffer without added bovine serum albumin (BSA).

A549 lung cancer cells = assay: Cell number after peptide treatment, A549; settings: 6 days, 0 μM to 50 μM; stock without BSA
Description: Replicate cultures of MDA-MB-468 breast cancer cells, A549 lung cancer cells and 293T transformed embryonic kidney cells were exposed to CP-DN-CEBPB or CP-DN-CEBPD, for 6 days at doses of 0 μM to 50 μM. […] Stock solutions of the peptides were prepared in buffer without added bovine serum albumin (BSA).

[4] = system: MCF10A non-cancer human breast epithelial cells; assay: Morphology after peptide treatment, MCF10A; settings: 5 to 6 days, 20 μM or 50; stock without BSA
Description: Stock solutions of the peptides were prepared in buffer without added bovine serum albumin (BSA).

Row | Sequence | lowest dose at which growth was inhibited, soft agar (HCT116 cells [1]) [µM] | CI with chloroquine (MDA-MB 231 cells) | growth and survival of B16 cells [2] | Combination Index (CI) with gamma radiation (HCT116 cells [3]) | lowest dose at which growth was inhibited, soft agar (T98G cells) [µM] | survival of astrocytes (normal human astrocytes) | number of A549 cells (A549 lung cancer cells) | morphology of MCF10A cells [4]
1 | RQIKIWFQNRRMKWKKLETQHKVLELTAENERLQKKVEQLSRELSTLRNLFKQL [CP-DN-CEBPB] | 0.5 | 0.59±0.11 | decrease in growth and survival | 0.89±0.04 | 0.5 | neither CP-DN-CEBPB or CP-DN-CEBPD affected survival of astrocyte | dose-dependent decrease in the number | did not affect the morphology
2 | RQIKIWFQNRRMKWKKLVELSAENEKLHQRVEQLTRDLAGLRQFFK [CP-DN-CEBPD] | 0.5 | 0.47±0.05 | decrease in growth and survival | 0.86±0.05 | 0.5 | neither CP-DN-CEBPB or CP-DN-CEBPD affected survival of astrocyte | dose-dependent decrease in the number | did not affect the morphology

Source: patent publication US12428455B2, “Dominant negative CEBPB and CEBPD proteins and methods of use for decreasing viability of neoplastic cells” (The Trustees of Columbia University in the City of New York, priority 2018, dated 2025)
